The target in one test is ROCK1 (Homo sapiens (Human), UniProt Q13464). As to the kind of experiment: ROCK1 kinase IC50, biological test method similar to ROCK2 assay. It is filed as biochemical. Here is the method: (§1) The kinase IC50 was determined by a commercialized CISBIO kinase detection kit, HTRF KinEASE-STK S2 kit (62ST2PEC). ROCK2 (01-119) employed in the reaction was purchased from Carna Biosciences.
(§2) Before the assay, the following working solutions as needed were formulated with corresponding reagents according to the instruction of the kinase detection kit: 1×kinase buffer, 5×STK-S2 substrate working solution (1.5 μM) and 5×ATP working solution (1.5 μM), 5×ROCK2 kinase working solution, 4×Streptavidin-XL665 working solution, and 4×STK-Ab-Cryptate 2 detection solution. Then the assay was performed according to the following procedure.
(§3) A solution of a compound at a concentration of 10000 nM was prepared with the 1×kinase buffer containing 2.5% DMSO. Gradient dilution of the solution of the compound was performed with the kinase buffer containing DMSO, so as to obtain solutions of a test compound at 9 different concentrations. In addition to wells of test compounds, a positive well (containing all the reagents except the compound) and a negative well (containing all the reagents except the test compound and kinase) were set. Except for the control wells (positive and negative wells), a solution of a test compound (4 μL) was added to each of the reaction wells, and a solution of 2.5% DMSO was added to the control wells. Then the substrate (2 μM, i.e., 2 μL 5×STK-S2 substrate working solution) was added to each of the reaction wells. The 5×ROCK2 kinase working solution (2 μL, containing 1.4 ng ROCK2 kinase) was added to each of the reaction wells except for the negative well, the volume of which was made up with the 1×kinase buffer (2 μL). The 5×ATP working solution (2 μL) was added to each of the reaction wells, and the mixtures were incubated at room temperature for 2 hours. After the kinase reaction was complete, the 4×Streptavidin-XL665 working solution was added to each of the reaction wells, the solutions were mixed, followed by immediate addition of the 4×STK-Ab-Cryptate 2 detection solution (5 μL), and the mixtures were incubated at room temperature for 1 hour. The fluorescence signal was read on ENVISION (Perkinelmer) (excitation wavelength: 320 inn, and emission wavelength: 665 nm and 615 nm). The inhibitory rate in each well was calculated based on the fluorescence intensity value: ER (Emission Ratio)_(fluorescence intensity at 665 nm/fluorescence intensity at 615 nm); inhibitory rate=(ERpositive−ERtest compound)/(ERpositive−ERnegative)*100%. Curves were plotted and fitted to obtain the median inhibitory concentration (IC50) of each teat compound with the PRISM 5.0 software. According to a biological test method similar to the above, the IC50 values of the compounds on ROCK1 were also tested.

In a further test the target is ROCK2 (Homo sapiens, UniProt O75116). As to the kind of experiment: ROCK2 kinase IC50, HTRF KinEASE-STK S2 kit. It is filed as biochemical. The note with it: 2 hours at room temperature. On the procedure: as §1, §2, §3

The text below walks through data of patent publication US12398118B2, “Rho-associated protein kinase inhibitor, pharmaceutical composition comprising same, and use thereof” (BEIJING TIDE PHARMACEUTICAL CO., LTD., priority 2018, dated 2025).

Each structure is given as a SMILES string. Where only a bound is given, the exact number is not on record here.

ROCK2, sequence (O75116 whole entry, looked up): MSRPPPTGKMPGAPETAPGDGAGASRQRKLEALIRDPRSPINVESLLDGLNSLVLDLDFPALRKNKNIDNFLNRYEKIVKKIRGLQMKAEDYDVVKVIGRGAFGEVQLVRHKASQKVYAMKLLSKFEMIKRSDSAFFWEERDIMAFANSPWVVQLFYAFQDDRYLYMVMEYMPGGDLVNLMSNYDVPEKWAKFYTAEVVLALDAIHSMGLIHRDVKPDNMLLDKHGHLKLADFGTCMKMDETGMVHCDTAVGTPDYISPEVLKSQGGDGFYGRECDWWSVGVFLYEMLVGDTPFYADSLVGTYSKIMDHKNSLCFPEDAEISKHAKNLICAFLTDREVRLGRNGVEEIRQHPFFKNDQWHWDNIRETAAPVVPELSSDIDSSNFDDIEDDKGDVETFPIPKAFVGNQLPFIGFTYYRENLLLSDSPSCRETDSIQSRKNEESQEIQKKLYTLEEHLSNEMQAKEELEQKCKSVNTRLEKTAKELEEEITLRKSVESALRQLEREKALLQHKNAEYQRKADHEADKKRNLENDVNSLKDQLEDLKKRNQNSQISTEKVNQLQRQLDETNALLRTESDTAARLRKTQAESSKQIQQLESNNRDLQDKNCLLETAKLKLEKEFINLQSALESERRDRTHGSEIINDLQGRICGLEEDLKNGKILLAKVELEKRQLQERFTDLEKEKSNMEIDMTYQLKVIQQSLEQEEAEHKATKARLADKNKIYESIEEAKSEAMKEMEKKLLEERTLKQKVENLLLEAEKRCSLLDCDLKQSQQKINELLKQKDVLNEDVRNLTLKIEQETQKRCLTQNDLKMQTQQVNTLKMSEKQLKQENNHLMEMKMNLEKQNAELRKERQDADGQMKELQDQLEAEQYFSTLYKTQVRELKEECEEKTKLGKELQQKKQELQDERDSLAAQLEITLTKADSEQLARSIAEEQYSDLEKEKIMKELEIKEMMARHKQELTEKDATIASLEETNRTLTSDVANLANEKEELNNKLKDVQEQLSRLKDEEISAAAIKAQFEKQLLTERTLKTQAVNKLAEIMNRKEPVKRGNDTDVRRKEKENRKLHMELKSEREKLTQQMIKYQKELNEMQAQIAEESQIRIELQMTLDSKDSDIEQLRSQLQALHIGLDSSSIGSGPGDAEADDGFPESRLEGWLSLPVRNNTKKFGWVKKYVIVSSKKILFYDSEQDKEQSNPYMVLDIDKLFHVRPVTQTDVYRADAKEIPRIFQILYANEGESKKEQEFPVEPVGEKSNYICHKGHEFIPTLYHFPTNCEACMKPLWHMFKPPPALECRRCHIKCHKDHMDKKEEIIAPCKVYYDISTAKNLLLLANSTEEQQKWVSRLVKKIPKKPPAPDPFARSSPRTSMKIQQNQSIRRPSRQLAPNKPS
ROCK1, sequence (Q13464 whole entry, species assumed): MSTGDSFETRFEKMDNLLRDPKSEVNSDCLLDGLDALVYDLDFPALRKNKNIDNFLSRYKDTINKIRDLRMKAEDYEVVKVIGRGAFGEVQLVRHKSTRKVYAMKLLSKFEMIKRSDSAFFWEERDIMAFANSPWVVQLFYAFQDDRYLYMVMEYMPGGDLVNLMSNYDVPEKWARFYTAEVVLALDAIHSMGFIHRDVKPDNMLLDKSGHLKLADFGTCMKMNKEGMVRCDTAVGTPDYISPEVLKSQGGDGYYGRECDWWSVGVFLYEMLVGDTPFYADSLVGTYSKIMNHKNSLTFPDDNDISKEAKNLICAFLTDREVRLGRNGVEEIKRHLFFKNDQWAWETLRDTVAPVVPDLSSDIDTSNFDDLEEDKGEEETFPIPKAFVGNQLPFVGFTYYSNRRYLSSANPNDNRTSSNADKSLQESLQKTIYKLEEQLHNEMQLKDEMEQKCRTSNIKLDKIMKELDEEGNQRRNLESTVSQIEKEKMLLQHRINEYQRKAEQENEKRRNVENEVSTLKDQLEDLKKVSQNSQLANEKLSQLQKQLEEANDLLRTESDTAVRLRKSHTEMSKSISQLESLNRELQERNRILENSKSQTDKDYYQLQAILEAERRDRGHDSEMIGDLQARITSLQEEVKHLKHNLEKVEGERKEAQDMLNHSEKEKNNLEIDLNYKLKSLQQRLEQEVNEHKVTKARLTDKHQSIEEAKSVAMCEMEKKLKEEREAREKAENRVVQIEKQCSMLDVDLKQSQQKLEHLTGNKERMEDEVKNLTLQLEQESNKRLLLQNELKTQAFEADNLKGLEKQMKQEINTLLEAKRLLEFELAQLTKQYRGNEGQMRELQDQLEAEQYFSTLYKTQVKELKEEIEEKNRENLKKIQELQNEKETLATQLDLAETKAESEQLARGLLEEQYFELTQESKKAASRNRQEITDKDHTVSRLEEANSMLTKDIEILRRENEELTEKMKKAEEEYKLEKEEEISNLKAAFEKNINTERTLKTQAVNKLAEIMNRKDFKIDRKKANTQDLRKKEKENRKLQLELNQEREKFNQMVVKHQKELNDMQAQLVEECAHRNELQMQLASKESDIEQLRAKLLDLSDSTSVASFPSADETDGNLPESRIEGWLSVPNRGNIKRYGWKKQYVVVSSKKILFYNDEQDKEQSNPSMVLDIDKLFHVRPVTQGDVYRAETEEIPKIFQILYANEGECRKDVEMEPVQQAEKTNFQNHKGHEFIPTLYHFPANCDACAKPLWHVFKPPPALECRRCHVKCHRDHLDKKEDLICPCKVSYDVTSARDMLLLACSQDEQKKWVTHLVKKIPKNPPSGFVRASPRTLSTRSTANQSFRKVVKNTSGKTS

The IC50 is the concentration that gives 50% inhibition. Lower therefore signals higher potency. On to `CC(OC(=O)N1CCc2sc(-c3nccc(Nc4ccc5c(c4)CCNC5=O)n3)cc2C1)C(F)(F)F` (stereo not shown) [C59, 1,1,1-trifluoropropan-2-yl 2-(4-((1-oxo-1,2,3,4-tetrahydroisoquinolin-6-yl)amino)pyrimidin-2-yl)-6,7-dihydrothieno[3,2-c]pyridine-5(4H)-carboxylate], for which the values for the IC50 against ROCK1 and at ROCK2 were above 10000 nM and 33 nM, respectively.
For `CC(OC(=O)N1CCc2sc(-c3ncc(F)c(Nc4ccc5c(=O)[nH]ncc5c4)n3)cc2C1)C(F)(F)F` (stereo not shown) [C60, 1,1,1-trifluoropropan-2-yl 2-(5-fluoro-4-((1-oxo-1,2-dihydrophthalazin-6-yl)amino)pyrimidin-2-yl)-6,7-dihydrothieno[3,2-c]pyridine-5(4H)-carboxylate] the same measures were above 10000 nM and 13 nM.
The corresponding values for `O=C1NCCc2cc(Nc3nc(-c4cc5c(s4)CCN(C(=O)OC(C(F)(F)F)C(F)(F)F)C5)ncc3F)ccc21` [C61, 1,1,1,3,3,3-hexafluoropropan-2-yl 2-(5-fluoro-4-((1-oxo-1,2,3,4-tetrahydroisoquinolin-6-yl)amino)pyrimidin-2-yl)-6,7-dihydrothieno[3,2-c]pyridine-5(4H)-carboxylate] are above 10000 nM and 170 nM.
For `O=C(N1Cc2ccc(-c3ncc(F)c(Nc4ccc5c(=O)[nH]ccc5c4)n3)cc2C1)C(F)(F)F` [C62], the IC50 against ROCK1 was above 10000 nM; against ROCK2 it was 139 nM.
Turning to `O=C(CCC(F)(F)F)N1Cc2ccc(-c3ncc(F)c(Nc4ccc5c(=O)[nH]ccc5c4)n3)cc2C1` [C63, 6-((5-fluoro-2-(2-(4,4,4-trifluoro-butanoyl)isoindolin-5-yl)pyrimidin-4-yl)amino) isoquinolin-1(2H)-one], the values for the IC50 at ROCK1 and on ROCK2 were above 10000 nM and 24 nM, respectively.
For `O=C1NCCc2cc(Nc3nc(-c4ccc5c(c4)CN(C(=O)CCC(F)(F)F)C5)ncc3F)ccc21` [C64, 6-((5-fluoro-2-(2-(4,4,4-trifluoro-butanoyl)isoindolin-5-yl)pyrimidin-4-yl)amino)-3,4-dihydro-isoquinolin-1(2H)-one] the same measures were above 10000 nM and 109 nM.
As for `C[C@@H](OC(=O)N1CCc2sc(-c3ncc(F)c(Nc4ccc5c(c4)CCNC5=O)n3)cc2C1)C(F)(F)F` [C65, (R)-1,1,1-trifluoropropan-2-yl 2-(5-fluoro-4-((1-oxo-1,2,3,4-tetrahydroisoquinolin-6-yl)amino)pyrimidin-2-yl)-6,7-dihydrothieno[3,2-c]pyridine-5(4H)-carboxylate], the half-inhibitory concentration (IC50) is above 10000 nM at ROCK1 and 80 nM on ROCK2.
The corresponding values for `CC(OC(=O)N1Cc2ccc(-c3ncc(F)c(Nc4ccc5c(c4)CCNC5=O)n3)cc2C1)C(F)(F)F` (stereo not shown) [C66, 1,1,1-trifluoro-propan-2-yl 5-(5-fluoro-4-((1-oxo-1,2,3,4-tetrahydro-isoquinolin-6-yl)amino)pyrimidin-2-yl) isoindolin-2-carboxylate] are above 10000 nM and 82 nM.
The corresponding values for `CC(CC(=O)N1Cc2ccc(-c3ncc(F)c(Nc4ccc5c(c4)CCNC5=O)n3)cc2C1)C(F)(F)F` (stereo not shown) [C67, 6-((5-fluoro-2-(2-(4,4,4-trifluoro-3-methyl-butanoyl)isoindolin-5-yl)pyrimidin-4-yl)amino)-3,4-dihydro-isoquinolin-1(2H)-one] are above 10000 nM and 101 nM.
The corresponding values for `O=C(CCC(F)(F)F)N1CCc2sc(-c3ncc(F)c(Nc4ccc5c(=O)[nH]ccc5c4)n3)cc2C1` [C68, 6-((5-fluoro-2-(5-(4,4,4-trifluorobutanoyl)-4,5,6,7-tetrahydrothieno[3,2-c]pyridin-2-yl)pyrimidin-4-yl)amino)isoquinolin-1(2H)-one] are above 10000 nM and 9 nM.
As for `O=C1NCCc2cc(Nc3nc(-c4cc5c(s4)CCN(C(=O)CCC(F)(F)F)C5)ncc3F)ccc21` [C69, 6-((5-fluoro-2-(5-(4,4,4-trifluorobutanoyl)-4,5,6,7-tetrahydrothieno[3,2-c]pyridin-2-yl)pyrimidin-4-yl)amino)-3,4-dihydroisoquinolin-1(2H)-one], the IC50 was above 10000 nM on ROCK1 and 45 nM at ROCK2.
